In patent US11371055B2, “Herbicide resistance genes” (CORTEVA AGRISCIENCE LLC, priority 2005, dated 2022):
Several values for one entry are separate records, joined by “and”; a condition that tells them apart may be missing. Equal values may be shown once.

Assays:
Assay type in all cases: in vivo, Glycine max
[1] = system: AAD-12 (v1)-containing T0 soybean plants; assay: 2,4-D spray application on T0 soybean
Source text: Plants that are transferred to the greenhouse can be assayed for the presence of an active PAT gene further with a non-destructive manner by painting a section of leaf of the T0 primary transformant, or progeny thereof, with a glufosinate solution [0.05-2% v/v Liberty Herbicide, preferably 0.25-1.0% (v/v),=500-2000 ppm glufosinate, Bayer Crop Science]. Depending on the concentration used, assessment for glufosinate injury can be made 1-7 days after treatment. Plants can also be tested for 2,4-D tolerance in a non-destructive manner by selective application of a 2,4-D solution in water (0.25-1% v/v commercial 2,4-D dimethylamine salt formulation, preferably 0.5% v/v=2280 ppm 2,4-D ae) to the terminal leaflet of the newly expanding trifoliolate one or two, preferably two, nodes below the youngest emerging trifolioate. This assay allows assessment of 2,4-D sensitive plants 6 hours to several days after application by assessment of leaf flipping or rotation >90 degrees from the plane of the adjacent leaflets. Plants tolerant to 2,4-D will not respond to 2,4-D. To plants will be allowed to self fertilize in the greenhouse to give rise to T1 seed. T1 plants (and to the extent enough T0 plant clones are produced) will be sprayed with a range of herbicide doses to determine the level of herbicide protection afforded by AAD-12 (v1) and PAT genes in transgenic soybean. Rates of 2,4-D used on T0 plants will typically comprise one or two selective rates in the range of 100-1120 g ae/ha using a track sprayer as previously described. T1 plants will be treated with a wider herbicide dose ranging from 50-3200 g ae/ha 2,4-D. Likewise, T0 and T1 plants can be screened for glufosinate resistance by postemergence treatment with 200-800 and 50-3200 g ae/ha glufosinate, respectively. Glyphosate resistance (in plants transformed with constructs that contain EPSPS) or another glyphosate tolerance gene can be assessed in the T1 generation by postemergence applications of glyphosate with a dose range from 280-2240 g ae/ha glyphosate. Analysis of protein expression will occur as described in below. Individual T0 plants were assessed for the presence of the coding region of the gene of interest (AAD-12 (v1) or PAT v6) and copy number. Determination of the inheritance of AAD-12 (v1) will be made using T1 and T2 progeny segregation with respect to herbicide tolerance as described in previous examples. […]

[2] = system: wildtype Maverick soybeans; assay: 2,4-D spray application on wildtype soybean
Source text: Plants that are transferred to the greenhouse can be assayed for the presence of an active PAT gene further with a non-destructive manner by painting a section of leaf of the T0 primary transformant, or progeny thereof, with a glufosinate solution [0.05-2% v/v Liberty Herbicide, preferably 0.25-1.0% (v/v),=500-2000 ppm glufosinate, Bayer Crop Science]. Depending on the concentration used, assessment for glufosinate injury can be made 1-7 days after treatment. Plants can also be tested for 2,4-D tolerance in a non-destructive manner by selective application of a 2,4-D solution in water (0.25-1% v/v commercial 2,4-D dimethylamine salt formulation, preferably 0.5% v/v=2280 ppm 2,4-D ae) to the terminal leaflet of the newly expanding trifoliolate one or two, preferably two, nodes below the youngest emerging trifolioate. This assay allows assessment of 2,4-D sensitive plants 6 hours to several days after application by assessment of leaf flipping or rotation >90 degrees from the plane of the adjacent leaflets. Plants tolerant to 2,4-D will not respond to 2,4-D. To plants will be allowed to self fertilize in the greenhouse to give rise to T1 seed. T1 plants (and to the extent enough T0 plant clones are produced) will be sprayed with a range of herbicide doses to determine the level of herbicide protection afforded by AAD-12 (v1) and PAT genes in transgenic soybean. Rates of 2,4-D used on T0 plants will typically comprise one or two selective rates in the range of 100-1120 g ae/ha using a track sprayer as previously described. T1 plants will be treated with a wider herbicide dose ranging from 50-3200 g ae/ha 2,4-D. Likewise, T0 and T1 plants can be screened for glufosinate resistance by postemergence treatment with 200-800 and 50-3200 g ae/ha glufosinate, respectively. Glyphosate resistance (in plants transformed with constructs that contain EPSPS) or another glyphosate tolerance gene can be assessed in the T1 generation by postemergence applications of glyphosate with a dose range from 280-2240 g ae/ha glyphosate. Analysis of protein expression will occur as described in below. Individual T0 plants were assessed for the presence of the coding region of the gene of interest (AAD-12 (v1) or PAT v6) and copy number. Determination of the inheritance of AAD-12 (v1) will be made using T1 and T2 progeny segregation with respect to herbicide tolerance as described in previous examples.
The screened plants were then sampled for molecular and biochemical analyses for the confirmation of the AAD12 (v1) genes integration, copy number, and their gene expression levels as described below and reported in Table 25.

[3] = system: PAT-only transformed soybean plants; assay: 2,4-D leaf paint (leaf flip assay) on PAT-only transformed soybean; design: key: 1 = Flip; 0 = No Flip; conditions: event D-2-3 (pDAB4499, PAT, CsVMV)
Source text: Plants that are transferred to the greenhouse can be assayed for the presence of an active PAT gene further with a non-destructive manner by painting a section of leaf of the T0 primary transformant, or progeny thereof, with a glufosinate solution [0.05-2% v/v Liberty Herbicide, preferably 0.25-1.0% (v/v),=500-2000 ppm glufosinate, Bayer Crop Science]. Depending on the concentration used, assessment for glufosinate injury can be made 1-7 days after treatment. Plants can also be tested for 2,4-D tolerance in a non-destructive manner by selective application of a 2,4-D solution in water (0.25-1% v/v commercial 2,4-D dimethylamine salt formulation, preferably 0.5% v/v=2280 ppm 2,4-D ae) to the terminal leaflet of the newly expanding trifoliolate one or two, preferably two, nodes below the youngest emerging trifolioate. […] Glyphosate resistance (in plants transformed with constructs that contain EPSPS) or another glyphosate tolerance gene can be assessed in the T1 generation by postemergence applications of glyphosate with a dose range from 280-2240 g ae/ha glyphosate. […] Individual T0 plants were assessed for the presence of the coding region of the gene of interest (AAD-12 (v1) or PAT v6) and copy number. […]
A subset of the initial transformants were assessed in the T0 generation according to the methods above. […]

[4] = event D-2-14 (pDAB4464, CsVMV), spray POST over the top 560 g ae/ha 2,4-D
[5] = event D-3-5 (pDAB4468, AtUbi10), spray POST over the top 560 g ae/ha 2,4-D
[6] = event D-3-6 (pDAB4468, AtUbi10), spray POST over the top 560 g ae/ha 2,4-D
[7] = event D-3-9 (pDAB4468, AtUbi10), spray POST over the top 1120 g ae/ha 2,4-D
[8] = event D-4-17 (pDAB4468, AtUbi10), spray POST over the top 1120 g ae/ha 2,4-D
[9] = event D-5-2 (pDAB4472, AtUbi3), spray POST over the top 560 g ae/ha 2,4-D
[10] = Maverick WT individual plants (WT-5, WT-6, WT-7), spray 560 g ae/ha 2,4-D
[11] = Maverick WT individual plants (WT-10, WT-8, WT-9), spray 1120 g ae/ha 2,4-D

O=C(O)COc1ccc(Cl)cc1Cl [2,4-D, 2,4-dichlorophenoxyacetic acid]
response to herbicide spray application ([1]; 560 or 1120 g ae 2,4-D): clearly resistant
% injury 2 DAT [1, 4]: 0%
% injury 7 DAT [1, 4]: 0%
% injury 14 DAT [1, 4]: 0%
% injury 2 DAT [1, 5]: 0%
% injury 7 DAT [1, 5]: 0%
% injury 14 DAT [1, 5]: 0%
% injury 2 DAT [1, 6]: 0%
% injury 7 DAT [1, 6]: 0%
% injury 14 DAT [1, 6]: 0%
% injury 2 DAT [1, 7]: 0%
% injury 7 DAT [1, 7]: 0%
% injury 14 DAT [1, 7]: 0%
% injury 2 DAT [1, 8]: 5%
% injury 7 DAT [1, 8]: 0%
% injury 14 DAT [1, 8]: 0%
% injury 2 DAT [1, 9]: 5%
% injury 7 DAT [1, 9]: 0%
% injury 14 DAT [1, 9]: 0%
response to herbicide spray application ([2]; 560 g ae/ha 2,4-D, 7-14 DAT): severely injured
response to herbicide spray application ([2]; 1120 g ae/ha 2,4-D): killed
% injury 2 DAT [2, 10]: 50% and 70% (2×)
% injury 7 DAT [2, 10]: 60% and 90% and 80%
% injury 14 DAT [2, 10]: 60% and 80% (2×)
% injury 2 DAT [2, 11]: 70%
% injury 7 DAT [2, 11]: 90% and 95% (2×)
% injury 14 DAT [2, 11]: 100%
Leaf flip assay (18 HAT) Node N-2 [3]: 1
